Several values for one entry are separate records, joined by “and”; a condition that tells them apart may be missing. Identical values can stand only once. Marks after values point to notes of the source that are not given here. Ends that are not written are not given here.
Columns and labels:
Type in all cases: in vivo, cattle
mature Angus heifers = experiment: Cetrorelix versus estradiol benzoate synchronization protocol with AI, random day of cycle (Example 7)
Procedure: This experiment was conducted on 38 mature Angus heifers at the Federal University of Santa Maria in Brazil. Heifers on a random day of the cycle (defined as Day 0) were divided into 2 groups (n=19 per group) and treated with a single i/m injection of 3 mg cetrorelix or with estradiol benzoate (1 mg i/m). A progesterone-releasing device (CIDR) was placed in the vagina of heifers at this time. Eight days after the cetrorelix or estradiol treatments, heifers were given 500 ug cloprostenol (prostaglandin analog) i/m injections and the CIDR device was removed. […] Heifers were given 250 ug gonadorelin acetate (GnRH analog) i/m injection at the time of artificial insemination. […] Pregnancy diagnosis was done 29-30 days after artificial insemination.

[1] = test system: Brahman x Angus cross beef post-partum cows; experiment: Field trial of fixed-time AI after cetrorelix versus estradiol protocol (Example 8)
Procedure: This field trial was conducted by a faculty member of the Federal University of Santa Maria at a client beef farm in Brazil in December 2022. A total of 216 Brahman x Angus cross beef post-partum cows were used for this experiment. Cows were divided into two treatment groups ([…]) and were either given cetrorelix 3 mg i/m or estradiol benzoate on a random day of the cycle (defined as Day 0). An intravaginal progesterone device (CIDR) was placed in all cows on Day 0. The CIDR devices were removed on Day 8 and animals were given prostaglandin F2a analog and equine choriogonadotropin (eCG). Fixed-time artificial insemination was done 54 hrs after CIDR removal and animals were given GnRH at this time. Pregnancy diagnosis was performed on Day 30 after artificial insemination. Transrectal ultrasound examinations were performed on Day 0, Day 8, Day 10 and Day 40.

[2] = test system: Hereford crossbred heifers; experiment: Cetrorelix pre-treatment before kisspeptin-10 in low-progesterone heifer model (Example 1); conditions: for Ovulation rate after treatments: number of heifer/total: extant dominant follicle
Procedure: Methods: The human Kisspeptin-10 (hKP-10) peptide (YNWNSFGLRF-NH2; SEQ ID NO: 1) was custom synthetized at >95% of purity (MW: 1318.44 g/mol) by GenScript USA Inc, Piscataway, NJ, USA. The sequence is based on the predicted C-terminal region (112-121-NH2) of human metastin (Gen Bank accession #AY117143) and has been previously used in cattle. The peptide was previously tested for solubility and was dissolved in ultrapure water at 10 mg/mL.
The heifers were maintained in outdoor pens at the University of Saskatchewan Goodale Research Farm (52° north and 106° west). Heifers were fed barley silage and had hay and water ad libitum. A mineral salt block was available to heifers throughout the study period. All procedures were performed in accordance with Canadian Council on Animal Care and were approved by the University of Saskatchewan Protocol Review Committee.
Immediately after ultrasound examination, heifers were given PGF2a twice at an interval of 12-hours. The low-progesterone bovine model described previously (Leonardi et al. 2019) was used to test the hypothesis. Briefly, the ovaries were examined daily by ultrasonography to detect ovulation. Three days after ovulation, follicles ≥5 mm in diameter in both ovaries were ablated by transvaginal ultrasound-guided follicle aspiration, inducing the emergence of new follicular wave 1.5 days after the procedure (Bergfelt et al. 1994). After follicular ablation, a progesterone device was placed in the vagina (CIDR; Zoetis). The day of wave emergence (Day 0) was defined as the day when the follicle of wave was first recorded (4 to 5 mm in diameter) with concurrent increase in diameter. Heifers were given PGF2α im on Days 3.5 and 4 (i.e., 8 and 8.5 days after ovulation) to cause luteolysis, however, the CIDR devices were left in place until Day 12 to maintain a low-progesterone milieu sufficient to prevent spontaneous ovulation. On Day 6, an indwelling jugular catheter was placed as described (Bergfelt et al. 1997) and heifers were assigned randomly to three groups (n=5 per group): 1) 3 iv doses of 15 mg human kisspeptin-10 at 1 h intervals (Kp10 group), 2) pretreatment with single im dose of Cetrorelix acetate (20 μg/Kg of body weight, GnRH antagonist—Sigma #C5249 diluted in 5% D-Manitol w/v, Sigma #M4125) followed 3 h later with 3 iv doses of 15 mg human kisspeptin-10 at 1 h intervals (Cetrorelix group), or 3) 3 iv doses of normal saline at 1 h intervals (Control group). Following treatment (on Day 6), ovarian ultrasound examinations were performed daily until the end of the experiment to detect ovulation of the extant dominant follicle (i.e., dominant follicle present at the time of treatment) or of the dominant follicle originating from a subsequent wave. The progesterone device was withdrawn on Day 12 (i.e., thirteen days after insertion) and ultrasound examinations were continued until ovulation was detected.
Blood samples and hormone assays: Serial blood samples on the day of treatment were collected at 15 minute intervals from −30 to 150 min (0 min=time of first hKP-10 or saline injection) using the indwelling jugular catheter. All blood samples were collected in heparinized tubes (Vacutainer, BD, Franklin Lakes NJ, USA). Immediately after sampling, tubes were centrifuged at 1,500×g for 15 min, and plasma was separated and stored at −20° C.
The plasma samples from both experiments were analyzed for LH and progesterone concentration at the University of Wisconsin (Madison, WI, USA) in Dr O. J. Ginther's Research Laboratory. Plasma LH concentrations were measured with a validated radioimmunoassay for cattle (Bolt et al. 1990) with modifications as reported Ginther et al. 1999). Briefly, LH concentrations were measured in duplicate using USDA-bLH-B-6 for ^125I-iodination and for preparing reference standards, and USDA-309-684P as the primary antibody (National Hormone and Pituitary Program, Torrance, CA, USA). […]

[3] = 3 mg cetrorelix or 1 mg estradiol benzoate i/m
[4] = 30 days after fixed-time artificial insemination
[5] = Day 6 of wave, low progesterone, Kp10 3 x 15 mg iv, Cetrorelix 20 μg/Kg im 3 h before Kp10
[6] = Kp10 3 x 15 mg iv, Cetrorelix 20 μg/Kg im 3 h before Kp10

**Q.** How did the “Pregnant/Double AI” value (mature Angus heifers; [3]) turn out when `C[C@]12CC[C@@H]3c4ccc(OC(=O)c5ccccc5)cc4CC[C@H]3[C@@H]1CC[C@@H]2O` [Estradiol benzoate, estradiol benzoate] was run?
**A.** Its value is 7/12.

**Q.** What about the “Pregnant/Double AI, percent” value (mature Angus heifers; [3]) of the same compound?
**A.** The value was 58%.

**Q.** What about the “Pregnant/Single AI” value (mature Angus heifers; [3]) of the same compound?
**A.** The value was 6/7.

**Q.** And the “Pregnant/Single AI, percent” value (mature Angus heifers; [3])?
**A.** Its value is 86%.

**Q.** What about the “Pregnant/Total, percent (pregnancy rate)” value (mature Angus heifers; random day of cycle, 3 mg cetrorelix i/m or 1 mg estradiol benzoate i/m, CIDR 8 days) of the same compound?
**A.** The value was 68%.

**Q.** What about the Pregnant/Total (mature Angus heifers; random day of cycle, 3 mg cetrorelix i/m or 1 mg estradiol benzoate i/m, CIDR 8 days, PGF, GnRH at AI) of the same compound?
**A.** The Pregnant/Total was 13/19.

**Q.** And the “Conception rate: Percent” value [1, 4]?
**A.** Its value is 45.6%.

**Q.** And the “Conception rate: Pregnant/AI” value [1, 4]?
**A.** The value was 48/106*.

**Q.** What about the “Conception rate: Percent” value ([1]; 30 days after fixed-time artificial insemination, listed as estradiol) of the same compound?
**A.** Its value is 45.6%.

**Q.** What about the “Size of the dominant follicle on Day 8 (at PGF)” value ([1]; cetrorelix 3 mg i/m or estradiol benzoate on Day 0, CIDR removal Day 8, in mm) of the same compound?
**A.** Its value is 8.60 ± 0.39.

**Q.** And the “Size of the dominant follicle on Day 10 (at AI)” value ([1]; cetrorelix 3 mg i/m or estradiol benzoate on Day 0, in mm)?
**A.** The value was 11.38 ± 0.56.

**Q.** For “Kp10: human Kisspeptin-10 (hKP-10) peptide YNWNSFGLRF-NH2; SEQ ID NO: 1 (listed as Homo sapiens)”, which “Interval between treatment and ovulation (hours after treatment)” value ([2]; Day 6 of wave, low progesterone, Kp10 3 x 15 mg iv) is on record?
**A.** The value was 48 h.

**Q.** And the “Dominant follicle diameter 24 h after treatment” value [2, 5]?
**A.** The value was 12.24 ± 0.89 mm.

**Q.** What about the “Dominant follicle diameter 48 h after treatment” value [2, 5] of the same compound?
**A.** Its value is 16.51 mm.

**Q.** What about the “Dominant follicle diameter at time of treatment” value [2, 5] of the same compound?
**A.** Its value is 11.34 ± 0.91 mm.

**Q.** And the “Emergence of a new follicular wave after treatment” value ([2]; Day 6 of wave, low progesterone, Kp10 3 x 15 mg iv, Cetrorelix single im 20 μg/Kg 3 h before Kp10)?
**A.** The value was 2.75 ± 0.75 days.

**Q.** And the “Day of ovulation of new dominant follicles after CIDR removal (Day 12)” value ([2]; Day of follicular wave)?
**A.** The value was 15.

**Q.** And the “Heifers in which a new wave emergence occurred” value [2, 6]?
**A.** Its value is 4 of 5.

**Q.** And the “Number of ovulations after CIDR removal on Day 12: Extant dominant follicle” value [2, 6]?
**A.** Its value is 1/1.

**Q.** And the “Number of ovulations after CIDR removal on Day 12: New dominant follicle” value [2, 6]?
**A.** Its value is 4/4.

**Q.** What about the “Plasma LH concentration / kisspeptin-induced LH surge” value [2, 6] of the same compound?
**A.** Its value is “higher plasma LH concentrations”.

**Q.** What about the “Ovulation rate after treatments: number of heifer/total” value [2, 5] of the same compound?
**A.** Its value is 4 of 5 and 4/5^a.

**Q.** What about the “Ovulation rate after treatments: number of heifer/total” value ([2]; Day 6 of wave, low progesterone, Kp10 3 x 15 mg iv, Cetrorelix 20 μg/Kg im 3 h before Kp10, listed as kisspeptin) of the same compound?
**A.** Its value is 4 out of 5.
